These compounds were tested on neutrophils (assay: Superoxide generation assay (luminol-based chemiluminescent assay, fMLP stimulus)). Conditions: isolated human neutrophils, GM-CSF present, compound 1 h, fMLP 2.5 µM, luminol 100 µM (Figure 2).
Assay type: cell-based
Procedure: Isolated human neutrophils were incubated in the presence of prosurvival factor GM-CSF with or without the compound at indicated concentrations for 1 h.
Levels of reactive oxygen species (ROS) generated by neutrophils were measured using a luminol-based chemiluminescent assay (Gyllenhammar 1987). After treatment, neutrophils were resuspended in Hank's Balanced Salt Solution (HBSS) containing calcium and magnesium (Gibco) and transferred to opaque 96 well plates (Greiner Bio-One GmbH). Luminol was then added to each well at final concentration of 100 µM followed by a measuring of chemiluminescence in response to the stimulus fMLP (2.5 µM) at 1 min intervals for 30 min by means of a luminometer (Centro LB 960, Berthold Technologies, Bad Wildbad, Germany).

| SMILES | neutrophil oxygen radical production induced by fMLP |
| --- | --- |
| CC(C)c1n[nH]c2c(NCc3ccc(-c4ccco4)cc3)nc(NCC(O)CN)nc12 (stereo not shown) [compound 15, 3-Isopropyl-5-(3-amino-2-hydroxypropyl)amino-7-[4-(furan-2-yl)benzyl]amino-1H-pyrazolo[4,3-d]pyrimidine] | inhibits |

What follows are compounds tested on neutrophils (assay: Measurement of neutrophil apoptosis (Annexin V FITC / propidium iodide, flow cytometry)). Conditions: 10 nM, 8 h, isolated human neutrophils, Annexin V positive / PI negative cells taken as apoptotic.
Assay type: cell-based
Source text: The neutrophils were isolated from the peripheral blood of healthy human donors as described previously (Afford et al 1992). Briefly, blood was collected into tubes containing EDTA followed by usage of 2% dextran solution for sedimentation of erythrocytes. The neutrophils were then isolated from leukocyte layer using a discontinuous Percoll density gradient centrifugation (Sigma- Aldrich, Poole, UK) and resuspended in RPMI 1640 medium (Sigma- Aldrich) supplemented with 10% heat-inactivated fetal bovine serum (Sera Laboratories International, Bolney, UK), 2 mM glutamine, 100 U/ml penicillin and 100 µg/ml streptomycin (Sigma-Aldrich). The purity of isolated neutrophils was assessed by Giemsa staining (Diff-Quick, Baxter Healthcare, UK) and light microscopy and was routinely greater than 97%. The neutrophils were then cultured in the presence of novel compounds (single concentration of 10 nM, or several increasing concentrations ranging from 10 nM to 1 µM) and other stimulating factors for 8 h.
For evaluation of early apoptosis, neutrophils were double stained with anti-Annexin V FITC-conjugated antibody (BD Pharmingen) binding extracellular phosphatidylserine and propidium iodide detecting late apoptotic and necrotic cells. After appropriate treatment, cells were washed with PBS and then resuspended in 100 µl of Annexin V buffer (10 mM HEPES, pH 7.4; 140 mM NaCl; 2.5 mM CaCl2). 1 µl of anti-Annexin V FITC-conjugated antibody was added and cells were then incubated at room temperature for 10 minutes followed by addition of propidium iodide at final concentration of 5 µg/ml. Fluorescence was analyzed by flow cytometry (BD Accuri C6 Flow Cytometer, Accuri Cytometers Inc.) with Annexin V positive / PI negative cells taken as apoptotic.

| SMILES | % of apoptotic cells |
| --- | --- |
| CC(C)c1n[nH]c2c(NCc3ccc(-c4ccco4)cc3)nc(NCC(C)(C)O)nc12 [compound 31, 3-Isopropyl-5-(2-hydroxy-2-methylpropyl)amino-7-[4-(furan-2-yl)benzyl]amino-1H-pyrazolo[4,3-d]pyrimidine] | 50% |
| CC(C)c1n[nH]c2c(NCc3ccc(-c4cccs4)cc3)nc(NCC(C)(C)O)nc12 [compound 32, 3-Isopropyl-5-(2-hydroxy-2-methylpropyl)amino-7-[4-(thiophen-2-yl)benzyl]amino-1H-pyrazolo[4,3-d]pyrimidine] | 48% |
| CC(C)c1n[nH]c2c(NCc3ccc(N4CCCC4)cc3)nc(NCC(C)(C)O)nc12 [compound 66] | 34% |
| CCN(CC)CCNc1nc(NCc2ccc(N3CCCC3)cc2)c2[nH]nc(C(C)C)c2n1 [compound 63] | 39% |
| CC(C)c1n[nH]c2c(NCc3ccc(-c4ccco4)cc3)nc(NCC(O)CN)nc12 (stereo not shown) [compound 15, 3-Isopropyl-5-(3-amino-2-hydroxypropyl)amino-7-[4-(furan-2-yl)benzyl]amino-1H-pyrazolo[4,3-d]pyrimidine] | 52% |
| CC(C)c1n[nH]c2c(NCc3ccc(-c4cccs4)cc3)nc(NCC(O)CO)nc12 (stereo not shown) [compound 34] | 52% |
| CC(C)c1n[nH]c2c(NCc3ccc(-n4cccn4)cc3)nc(NCCCCCN)nc12 [compound 59] | 49% |
| CC(C)c1n[nH]c2c(NCc3ccc(-c4ccco4)cc3)nc(S(C)(=O)=O)nc12 [compound 2, 3-Isopropyl-5-methylsulfonyl-7-[4-(furan-2-yl)benzyl]amino-1H-pyrazolo[4,3-d]pyrimidine] | 41% |
| CC(C)c1n[nH]c2c(Cl)nc(S(C)(=O)=O)nc12 [compound 1, 7-Chloro-3-isopropyl-5-methylsulfonyl-1H-pyrazolo[4,3-d]pyrimidine] | 32% |
| CC(C)c1n[nH]c2c(NCc3ccc(-c4cccs4)cc3)nc(S(C)(=O)=O)nc12 [compound 3, 3-Isopropyl-5-methylsulfonyl-7-[4-(thiophen-2-yl)benzyl]amino-1H-pyrazolo[4,3-d]pyrimidine] | 58% |
| CC(CCO)Nc1nc(NCc2ccc(-c3cccs3)cc2)c2[nH]nc(C(C)C)c2n1 (racemic) [compound 44] | 38% |
| CC(C)c1n[nH]c2c(NCc3ccc(-c4cccs4)cc3)nc(NCCC(C)(C)O)nc12 [compound 33] | 36% |
| CC(C)c1n[nH]c2c(NCc3ccc(-n4cccn4)cc3)nc(NCCCCCCN)nc12 [compound 60] | 60% |
| CC(C)c1n[nH]c2c(NCc3ccc(-c4ccco4)cc3)nc(NCCCCCCN)nc12 [compound 30] | 39% |
| CC(C)c1n[nH]c2c(NCc3ccc(-c4cccs4)cc3)nc(N[C@H](C)CCO)nc12 [compound 45] | 33% |
| CC(C)c1n[nH]c2c(NCc3ccc(-c4ccco4)cc3)nc(NCCO)nc12 [compound 7] | 47% |
| CC(C)c1n[nH]c2c(NCc3ccc(-n4cccn4)cc3)nc(S(C)(=O)=O)nc12 [compound 6, 3-Isopropyl-5-methylsulfonyl-7-[4-(1H-pyrazol-1-yl)benzyl]amino-1H-pyrazolo[4,3-d]pyrimidine] | 36% |
| CCN(CC)C(C)CCNc1nc(NCc2ccc(N3CCCC3)cc2)c2[nH]nc(C(C)C)c2n1 (stereo not shown) [compound 65] | 56% |
| CC(C)c1n[nH]c2c(NCc3ccc(-n4cccn4)cc3)nc(NCCCCN)nc12 [compound 58] | 44% |
| CC(C)c1n[nH]c2c(NCc3ccc(-c4cccs4)cc3)nc(NC[C@H](C)O)nc12 [compound 42] | 57% |
| CC(C)c1n[nH]c2c(NCc3ccc(-n4cccn4)cc3)nc(NCC(O)CN)nc12 (stereo not shown) [compound 61, 3-Isopropyl-5-(3-amino-2-hydroxypropyl)amino-7-[4-(1H-pyrazol-1-yl)benzyl]amino-1H-pyrazolo[4,3-d]pyrimidine] | 40% |

Reference: patent EP3325480B1, “5-SUBSTITUTED-7-[4-(SUBSTITUTED) BENZYL]AMINO-3-ISOPROPYLPYRAZOLO (4,3-D) PYRIMIDINES AS MEDICAMENTS” (Ustav experimentalni botaniky AV CR, v.v.i., priority 2015, dated 2017)
